The text below walks through data of patent US9732370B2, “Method for the determination of the presence of an antibiotic in a fluid” (DSM IP ASSETS B.V., priority 2013, dated 2017).

The experiment deals with test organism of Delvotest SP-NT. In words: Microbial growth inhibition test (DSM Delvotest SP-NT, reference or modified with streptomycin in the test medium): detection limit of antibiotics in spiked milk. The settings on record: for Detection limit: spiked milk, 64° C., cut-off Z-value 0; for Effect of an aminoglycoside antibiotic in the test medium on the sensitivity of the test for the antibiotic: aminoglycoside antibiotic (streptomycin) added to test medium versus reference test. It counts as cell-based. The protocol: As a reference, a commercially available test system without any added aminoglycoside antibiotic (DSM Delvotest® SP-NT, plates containing 8×12 test wells) was used. In addition, two different test systems were prepared by modifying the reference test by adding the aminoglycoside antibiotic streptomycin to the test medium in a final concentration of 100 ppb or 1000 ppb. The detection limits of four different antibiotics were measured in the reference test and in the tests with modified medium containing different concentrations of streptomycin. The antibiotics that were measured were streptomycin and dihydrostreptomycin (DH-streptomycin) (both belonging to the aminoglycoside antibiotic family), penicillin G (belonging to the beta-lactam antibiotic family), and oxytetracycline (belonging to the tetracycline antibiotic family) Five different concentrations of each antibiotic (see Table 1) were measured. Hundred microliter antibiotic-free milk or hundred microliter milk spiked with the respective concentrations of antibiotic was added to the test medium (170 μl) and incubated at 64° C. in a water bath. The tests were visually determined at the point in time where a sample without antibiotic had changed colour from purple to yellow. At this point, the plates were cooled in an ice bath for 5 minutes. The cooled plates were scanned on a Delvo® scanner. The colour of each well was expressed as a Z-value; a purple colour gives rise to a positive Z-value, while a yellow colour has a negative Z-value. The Z-value of test results with samples without antibiotic is typically […]. Detailed description of the scanning technology and the expression of the colour in Z-values are described in WO 03/033728. For the determination of the detection limit for each antibiotic, a dose-response function (Z-value versus concentration of antibiotic) was constructed. The detection limit is defined as the antibiotic concentration where the S-shaped dose-response function has a Z-value equal to the cut-off value. For Delvotest® SP-NT a cut-off Z-value of 0 was used.

Where [1] appears, read: Streptomycin concentration in test 100 ppb.
[2] abbreviates: Streptomycin concentration in test 1000 ppb.
The mark [3] stands for this setting: Streptomycin concentration in test 0 ppb (reference Delvotest SP-NT).

On to `CN[C@@H]1[C@H](O[C@H]2[C@H](O[C@H]3[C@H](O)[C@@H](O)[C@H](NC(=N)N)[C@@H](O)[C@@H]3NC(=N)N)O[C@@H](C)[C@]2(O)CO)O[C@@H](CO)[C@H](O)[C@H]1O` [DH-streptomycin, dihydrostreptomycin], for which the “Effect of an aminoglycoside antibiotic in the test medium on the sensitivity of the test for the antibiotic” value (“Effect of an aminoglycoside antibiotic” below) was “increases”. The same molecule yielded a Detection limit under setting [1] of 982 ppb. For the same molecule, under setting [2], the Detection limit came out at 445 ppb.

`CN(C)[C@@H]1C(O)=C(C(N)=O)C(=O)[C@@]2(O)C(O)=C3C(=O)c4c(O)cccc4[C@@](C)(O)[C@H]3[C@H](O)[C@@H]12` [Oxytetracycline, oxytetracycline]: the “Effect of an aminoglycoside antibiotic” value was “no effect”. Moreover, the Detection limit under setting [3] was 264 ppb. For the same molecule, under setting [1], the Detection limit was 239 ppb. This molecule showed a Detection limit under setting [2] of 343 ppb.

Regarding `CC1(C)S[C@@H]2[C@H](NC(=O)Cc3ccccc3)C(=O)N2[C@H]1C(=O)O` [Penicillin G, penicillin G], the “Effect of an aminoglycoside antibiotic” value is “no effect”. Also, the Detection limit under setting [3] was 1.04 ppb. Also, the Detection limit under setting [1] is 0.95 ppb. The same molecule came in with a Detection limit under setting [2] of 1.07 ppb.

Regarding `[H]/N=C(/N)N[C@H]1[C@H](O)[C@@H](O)[C@H](O[C@@H]2O[C@@H](C)[C@](O)(C=O)[C@H]2O[C@@H]2O[C@@H](CO)[C@H](O)[C@@H](O)[C@@H]2NC)[C@@H](N/C(N)=N\[H])[C@@H]1O` [Streptomycin, streptomycin], the “Effect of an aminoglycoside antibiotic” value is “increases”. The same molecule displayed a Detection limit under setting [1] of 1186 ppb. For the same molecule, the Detection limit under setting [2] came to 676 ppb.
